Measurements: patent US7572811B2, “Immunosuppressant compounds and compositions” (IRM LLC, priority 2004, dated 2009)
pEC50: −log10 of the molar value. Where two headings read alike, the source gives them in different places.

Key:
human EDG-1 (S1P-1) = biological target: T1, human EDG-1 (S1P-1) (Homo sapiens, UniProt P21453); assay: EDG-1 (S1P1) GTP [γ-35S] binding SPA assay; type: biochemical; settings: for pEC50: GTP [γ-35S] binding, CHO cell membranes
T1 construct: c-myc (N); expressed in transfected cells; host or cells: CHO cell clones (membrane preparation)
Description: (§1) A. In Vitro: A Scintillation Proximity Assay (SPA) for Measuring GTP [γ-^35S] Binding to Membranes Prepared from CHO Cells Expressing Human EDG/S1P Receptors
(§2) EDG-1 (S1P1) GTP [γ-^35S] binding assay: Membrane protein suspensions are prepared from CHO cell clones stably expressing a human EDG-1 N-terminal c-myc tag. Solutions of test compounds ranging from 10 mM to 0.01 nM are prepared in DMSO/50 mM HCl and then diluted into assay buffer (20 mM HEPES, pH7.4, 100 mM NaCl, 10 mM MgCl2, 0.1% fat free BSA). Assay buffer containing 10 mM GDP is mixed with wheat germ agglutinin-coated SPA-beads (1 mg/well) followed by the addition of human EDG-1 membrane protein suspension (10 μg/well) and test compound. The bead/membrane/compound assay components are then mixed for 10-15 minutes on a shaker at room temperature. GTP [γ-^35S] (200 pM) and bead/membrane/compound assay mixture are added to individual wells of a 96 well Optiplate™ (final volume 225 μl/well), sealed and incubated at room temperature for 110 to 120 minutes under constant shaking. After centrifugation (2000 rpm, 10 minutes) luminescence is measured with a TopCount™ instrument.
EC50 values are obtained by fitting the GTP [γ-^35S] binding curves (raw data) with the dose response curve-fitting tool of ORIGIN V. 6.1. Basal binding (no compound) and the highest stimulation of GTP [γ-^35S] binding achieved by an agonist are used as the fitting range. Seven different concentrations are used to generate a concentration response curve (using two or three data points per concentration).
Concentrations of EDG receptor expressing membranes range between 13-19 μg per well.

[1] = system: peripheral blood lymphocytes; assay: Measurement of circulating lymphocytes (blood lymphocyte depletion); type: in vivo, Mice (C57bl/6 male); settings: Mus musculus, mice, oral gavage, read-out: ED50 (effective dose for 50% blood lymphocyte depletion)
Description: C. In Vivo: Screening Assays for Measurement of Blood Lymphocyte Depletion and Assessment of Heart Effect
Measurement of circulating lymphocytes: Compounds are dissolved in DMSO and diluted to obtain a final concentration of 4% DMSO (v/v, final concentration) and then further diluted in a constant volume of Tween80 25%/H2O, v/v. Tween80 25%/H2O (200 μl), 4% DMSO, and FTY720 (10 μg) are included as negative and positive controls, respectively. Mice (C57bl/6 male, 6-10 week-old) are administered 250-300 μL of compound solution orally by gavages under short isoflurane anesthesia.
[…] Whole blood samples are subjected to hematology analysis. Peripheral lymphocyte counts are determined using an automated analyzer. Subpopulations of peripheral blood lymphocytes are stained by fluorochrome-conjugated specific antibodies and analyzed using a fluorescent activating cell sorter (Facscalibur). Two mice are used to assess the lymphocyte depletion activity of each compound screened. The result is an ED50, which is defined as the effective dose required displaying 50% of blood lymphocyte depletion.

S1P-2 (EDG-5) = biological target: T2, S1P-2 (EDG-5) (Homo sapiens, UniProt O95136); assay: EDG-5 GTP [γ-35S] binding SPA assay; type: biochemical
T2 construct: expressed in transfected cells; host or cells: CHO cells (membrane preparation)
Description: as §1, §2
(§3) EC50 values are obtained by fitting the GTP [γ-^35S] binding curves (raw data) with the dose response curve-fitting tool of ORIGIN V. 6.1. […]

S1P-3 (EDG-3) = S1P-3 (EDG-3) (Homo sapiens, UniProt Q99500); assay: EDG-3 GTP [γ-35S] binding SPA assay; type: biochemical
Description: as §1, §2, §3

S1P-4 (EDG-6) = biological target: T3, S1P-4 (EDG-6) (Homo sapiens, UniProt O95977); assay: EDG-6 GTP [γ-35S] binding SPA assay; type: biochemical
T3 sequence (O95977 1-384): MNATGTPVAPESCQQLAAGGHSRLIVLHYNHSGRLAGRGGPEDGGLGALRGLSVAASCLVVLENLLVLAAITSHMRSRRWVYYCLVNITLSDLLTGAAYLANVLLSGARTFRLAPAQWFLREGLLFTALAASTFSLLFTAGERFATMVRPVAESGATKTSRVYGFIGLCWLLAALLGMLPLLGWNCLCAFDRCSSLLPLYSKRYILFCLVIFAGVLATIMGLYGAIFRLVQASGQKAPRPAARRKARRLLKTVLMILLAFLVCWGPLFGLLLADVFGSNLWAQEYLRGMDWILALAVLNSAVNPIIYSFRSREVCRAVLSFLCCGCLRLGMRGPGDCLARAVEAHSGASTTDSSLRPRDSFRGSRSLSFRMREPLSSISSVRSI
Description: as §1, §2, §3

S1P-5 (EDG-8) = biological target: T4, S1P-5 (EDG-8) (Homo sapiens, UniProt Q9H228); assay: EDG-8 GTP [γ-35S] binding SPA assay; type: biochemical
T4 construct: expressed in transfected cells; host or cells: RE7777 cells as printed (membrane preparation)
Description: as §1, §2, §3

T1 sequence (P21453 whole entry): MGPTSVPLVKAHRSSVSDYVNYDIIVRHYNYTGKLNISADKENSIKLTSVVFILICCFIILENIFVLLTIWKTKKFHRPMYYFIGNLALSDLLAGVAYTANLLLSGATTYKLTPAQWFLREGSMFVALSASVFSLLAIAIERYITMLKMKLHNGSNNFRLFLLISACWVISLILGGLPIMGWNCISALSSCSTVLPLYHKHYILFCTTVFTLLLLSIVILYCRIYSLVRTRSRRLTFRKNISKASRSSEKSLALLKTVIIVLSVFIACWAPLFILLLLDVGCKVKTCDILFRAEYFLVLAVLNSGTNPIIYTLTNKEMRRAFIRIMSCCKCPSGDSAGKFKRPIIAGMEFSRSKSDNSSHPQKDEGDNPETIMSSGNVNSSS
Sequence of S1P-3 (EDG-3) (Q99500 whole entry): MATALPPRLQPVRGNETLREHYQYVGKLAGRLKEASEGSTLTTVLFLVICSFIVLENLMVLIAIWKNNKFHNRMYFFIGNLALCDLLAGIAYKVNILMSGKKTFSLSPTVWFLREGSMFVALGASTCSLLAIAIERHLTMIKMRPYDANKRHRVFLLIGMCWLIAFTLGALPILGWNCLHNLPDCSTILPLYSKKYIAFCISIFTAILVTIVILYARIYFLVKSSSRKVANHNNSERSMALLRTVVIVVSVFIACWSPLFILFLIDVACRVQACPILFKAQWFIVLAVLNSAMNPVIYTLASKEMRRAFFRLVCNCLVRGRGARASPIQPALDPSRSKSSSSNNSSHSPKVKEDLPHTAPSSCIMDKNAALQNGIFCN
T2 sequence (O95136 whole entry): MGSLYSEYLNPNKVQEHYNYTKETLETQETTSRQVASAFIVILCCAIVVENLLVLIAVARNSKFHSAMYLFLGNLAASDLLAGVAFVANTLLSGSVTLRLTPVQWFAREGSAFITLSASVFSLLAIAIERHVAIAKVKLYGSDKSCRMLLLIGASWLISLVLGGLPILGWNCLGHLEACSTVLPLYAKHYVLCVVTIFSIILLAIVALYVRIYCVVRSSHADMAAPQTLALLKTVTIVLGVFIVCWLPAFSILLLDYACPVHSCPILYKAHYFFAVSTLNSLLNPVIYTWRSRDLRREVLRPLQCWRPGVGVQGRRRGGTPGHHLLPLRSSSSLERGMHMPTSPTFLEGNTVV
T4 sequence (Q9H228 whole entry): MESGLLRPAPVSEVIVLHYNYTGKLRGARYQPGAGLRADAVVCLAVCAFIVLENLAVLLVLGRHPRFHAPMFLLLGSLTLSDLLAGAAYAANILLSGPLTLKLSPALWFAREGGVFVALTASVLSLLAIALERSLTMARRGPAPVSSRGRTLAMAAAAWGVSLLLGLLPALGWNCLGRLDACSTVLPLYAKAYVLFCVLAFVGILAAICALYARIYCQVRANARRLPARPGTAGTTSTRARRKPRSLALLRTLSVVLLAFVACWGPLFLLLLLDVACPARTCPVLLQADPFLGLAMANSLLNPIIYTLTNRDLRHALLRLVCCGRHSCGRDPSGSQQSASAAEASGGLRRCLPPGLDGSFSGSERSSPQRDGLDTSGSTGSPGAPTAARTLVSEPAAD

Row | pEC50 (human EDG-1 (S1P-1)) | selectivity for S1P-1 compared to one or more of the other receptors (human EDG-1 (S1P-1); versus S1P-3, S1P-5, S1P-6 and S1P-8 as printed) | pEC50 (S1P-2 (EDG-5)) | pEC50 (S1P-3 (EDG-3)) | pEC50 (S1P-4 (EDG-6)) | pEC50 (S1P-5 (EDG-8)) | SMILES | ED50 ([1]; time point not stated) [mg/kg] | ED50 ([1]; at 6 hours) [mg/kg] | ED50 ([1]; at 48 hours) [mg/kg]
1 | 9.66 | at least 1000 fold | – | – | – | – | Cc1cc(OCc2ccc(C3CCN(CCC(=O)O)CC3)cc2)ccc1C1CCCCC1 [Example 1, 3-{4-[4-(4-Cyclohexyl-3-methyl-phenoxymethyl)-phenyl]-piperidin-1-yl}-propionic acid] | 0.1 | – | –
2 | 8.70 | – | < 5.00 | 5.70 | < 5.00 | 6.43 | Cc1cc(OCc2ccc(C3CCN(CCC(=O)O)CC3)cc2)ccc1-c1ccccc1 [Example 8, 3-{4-[4-(2-Methyl-biphenyl-4-yloxymethyl)-phenyl]-piperidin-1-yl}-propionic acid] | – | 0.2 | 0.8
